In patent US12264156B2, “Compounds and pharmaceutical compositions thereof for the treatment of diseases” (GALAPAGOS NV, priority 2018, dated 2025):
Each block holds one molecule with its values, some of them ahead of it.

Columns and labels:
TNFα = assay: Mouse LPS-induced endotoxic shock, plasma TNFα; assay type: in vivo; design: key: +: statistically significant inhibition of TNFα; −: no effect on the level of TNFα; details: p.o., plasma 90 min after LPS challenge
Procedure: (§1) Injection of lipopolysaccharide (LPS) induces a rapid release of soluble tumour necrosis factor (TNFα) into the periphery. This model was used to assess prospective blockers of TNFα release in vivo.
(§2) Lipopolysaccharide (LPS) from Escherichia Coli serotype O111:B4 was obtained from Sigma Aldrich (Cat #L2630).
(§3) BALB/cAnNCrl mice (female, 18-20 g body weight) were obtained from Charles River (Calco, Italy). Mice were kept on a 12 h light/dark cycle. Temperature was maintained at 22±2° C., food and water were provided ad libitum.
(§4) Mice were dosed once by oral (p.o.) or subcutaneous (sc) route with the tested compound in the appropriate vehicle.
(§5) At the Tmax of compound, 100 μg of LPS (in H2O) was injected intraperitoneally to mice. A control group was included which comprises administering the vehicle without an LPS challenge.
(§6) Mice were sacrificed 90 min after LPS challenge and blood was collected in heparinised tubes. Plasma was obtained by centrifugation for 15 min, 2000×g at +4° C. and frozen at −80° C. before cytokine analysis.
(§7) TNFα and IL-10 were quantified in plasma by AlphaLISA detection kits obtained from PerkinElmer (Massachusetts, USA), Cat4 AL505C and AL502C, respectively.
(§8) Statistics were performed with Prism 5.03 software (GraphPad) using an ANOVA analysis of variance with Dunnett's post-hoc test versus LPS group.
(§9) Active compounds were defined as showing a statistically significant decrease in TNFα with or without a statistically significant induction of IL-10

[1] = tested on: LPS-induced TNFα in monocytes; assay: Monocytes assay: LPS-triggered TNFα (ELISA); assay type: cell-based, human; details: Homo sapiens, Monocyte, LPS 200 ng/mL, supernatant after 4 h
Procedure, shortened: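 Human CD14+ monocytes from buffy-coat PBMCs (magnetic bead selection) were seeded at 100 000 cells/well and pretreated with compound for 1 h at 37° C (0.2% DMSO). They were then stimulated with 200 ng/mL LPS for 4 h, and supernatant TNFα was measured by chemiluminescent sandwich ELISA as percent inhibition.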

[2] = tested on: LPS triggered IL-10 secretion in monocytes; assay: Monocytes assay: LPS-triggered IL-10 (ELISA); assay type: cell-based, human; details: LPS 200 ng/mL, supernatant after 4 h, maximal fold change vs LPS only
Procedure, shortened: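 Human CD14+ monocytes, magnetically isolated from buffy-coat PBMCs, were seeded at 100 000 cells/well and preincubated with compound for 1 h at 37° C (0.2% DMSO). LPS was then added at a final 200 ng/mL for 4 h. Supernatant IL-10 was quantified by chemiluminescent sandwich ELISA against a standard curve.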

IL-10 = assay: Mouse LPS-induced endotoxic shock, plasma IL-10; assay type: in vivo; design: key: +: statistically significant induction of IL-10; −: no effect on the level of IL-10; details: p.o., plasma 90 min after LPS challenge
Procedure: as §1, §2, §3, §4, §5, §6, §7, §8, §9

SMILES: COc1cc(-c2cnc3cc(OCCN4CCOCC4)ccn23)cc2c1C(=O)N(CC(F)(F)F)CC2 [Cpd 88, 8-methoxy-6-[7-(2-morpholinoethoxy)imidazo [1,2-a]pyridin-3-yl]-2-(2,2,2-trifluoroethyl)-3,4-dihydroisoquinolin-1-one]
- TNFα (TNFα; 3 mg/kg): +
- TNFα (TNFα; 10 mg/kg): +
- TNFα (TNFα; 30 mg/kg): +
- EC50 [1]: 100 to 1000 nM
- IL-10 FCmax median [2]: +++ (>4.5)
- IL-10 (IL-10; 3 mg/kg): −
- IL-10 (IL-10; 10 mg/kg): +
- IL-10 (IL-10; 30 mg/kg): +

SMILES: COc1cc(-c2cnc3cc(OCCN(C)C)ccn23)cc2c1C(=O)N(CC(F)(F)F)CC2 [Cpd 18, 6-[7-[2-(dimethylamino)ethoxy]imidazo[1,2-a]pyridin-3-yl]-8-methoxy-2-(2,2,2-trifluoroethyl)-3,4-dihydroisoquinolin-1-one]
- TNFα (TNFα; 3 mg/kg): −
- TNFα (TNFα; 10 mg/kg): −
- IL-10 (IL-10; 3 mg/kg): −
- IL-10 (IL-10; 10 mg/kg): −

SMILES: COc1cc(-c2cnc3cc(OCCN4CCOC[C@@H]4C)ccn23)cc2c1C(=O)N(CC(F)(F)F)CC2 [Cpd 257, 8-methoxy-6-[7-[2-[(3S)-3-methylmorpholin-4-yl]ethoxy]imidazo[1,2-a]pyridin-3-yl]-2-(2,2,2-trifluoroethyl)-3,4-dihydroisoquinolin-1-one]
- EC50 ([1]; 4 h): 100 to 1000 nM
- IL-10 FCmax median [2]: +++ (>4.5)

SMILES: COc1cc(-c2cnc3cc(OC[C@H]4COCCO4)ccn23)cc2c1C(=O)N(CC(F)F)CC2 [compound 219, 2-(2,2-difluoroethyl)-6-[7-[[(2R)-1,4-dioxan-2-yl]methoxy]imidazo[1,2-a]pyridin-3-yl]-8-methoxy-3,4-dihydroisoquinolin-1-one]
- EC50 ([1]; 4 h): 100 to 1000 nM
- IL-10 FCmax median [2]: +++ (>4.5)

SMILES: COc1cc(-c2cnc3cc(OCc4nncn4C)ccn23)cc(OC(F)F)c1C(=O)NC1CC1 [compound 227, N-cyclopropyl-2-(difluoromethoxy)-6-methoxy-4-[7-[(4-methyl-1,2,4-triazol-3-yl)methoxy]imidazo[1,2-a]pyridin-3-yl]benzamide]
- EC50 ([1]; 4 h): 1000 to 5000 nM
- IL-10 FCmax median [2]: ++ (>1.5-4.5)

SMILES: COc1cc(-c2cnc3cc(OCCN4CCOCC4)ccn23)cc2c1C(=O)N(CC(F)F)CC2 [compound 218, 2-(2,2-difluoroethyl)-8-methoxy-6-[7-(2-morpholinoethoxy)imidazo [1,2-a]pyridin-3-yl]-3,4-dihydroisoquinolin-1-one]
- EC50 ([1]; 4 h): 100 to 1000 nM
- IL-10 FCmax median [2]: +++ (>4.5)

SMILES: COc1cc(-c2cnc3cc(OCCCN4CCNCC4)ccn23)cc(OC(F)F)c1C(=O)NC1CC1 [compound 278, N-cyclopropyl-2-(difluoromethoxy)-6-methoxy-4-[7-(3-piperazin-1-ylpropoxy)imidazo[1,2-a]pyridin-3-yl]benzamide]
- EC50 ([1]; 4 h): 100 to 1000 nM
- IL-10 FCmax median [2]: ++ (>1.5-4.5)

Continued, in another order:

- EC50 ([1]; 4 h): 100 to 1000 nM
SMILES: COc1cc(-c2cnc3cc(OCCN(C)C)ccn23)cc(OC(F)F)c1C(=O)NC1CC1 [Cpd 6, N-cyclopropyl-2-(difluoromethoxy)-4-[7-[2-(dimethylamino)ethoxy]imidazo[1,2-a]pyridin-3-yl]-6-methoxy-benzamide]
- TNFα (TNFα; 3 mg/kg): −
- TNFα (TNFα; 10 mg/kg): +
- IL-10 FCmax median [2]: +++ (>4.5)
- IL-10 (IL-10; 3 mg/kg): −
- IL-10 (IL-10; 10 mg/kg): +

- EC50 ([1]; 4 h): 100 to 1000 nM
SMILES: COc1cc(-c2cnc3cc(OC[C@H]4COCCO4)ccn23)cc2c1C(=O)N(CC(F)(F)F)CC2 [Cpd 86, 6-[7-[[(2R)-1,4-dioxan-2-yl]methoxy]imidazo[1,2-a]pyridin-3-yl]-8-methoxy-2-(2,2,2-trifluoroethyl)-3,4-dihydroisoquinolin-1-one]
- TNFα (TNFα; 3 mg/kg): +
- TNFα (TNFα; 10 mg/kg): +
- IL-10 FCmax median [2]: +++ (>4.5)
- IL-10 (IL-10; 3 mg/kg): +
- IL-10 (IL-10; 10 mg/kg): +

- EC50 ([1]; 4 h): 100 to 1000 nM
SMILES: COc1cc(-c2cnc3cc(OC[C@@H]4COCCO4)ccn23)cc2c1C(=O)N(CC(F)(F)F)CC2 [compound 225, 6-[7-[[(2S)-1,4-dioxan-2-yl]methoxy]imidazo[1,2-a]pyridin-3-yl]-8-methoxy-2-(2,2,2-trifluoroethyl)-3,4-dihydroisoquinolin-1-one]
- TNFα (TNFα; 3 mg/kg): +
- TNFα (TNFα; 10 mg/kg): +
- IL-10 FCmax median [2]: +++ (>4.5)
- IL-10 (IL-10; 3 mg/kg): +
- IL-10 (IL-10; 10 mg/kg): +

- EC50 ([1]; 4 h): 0.1 to 100 nM
SMILES: COc1cc(-c2cnc3cc(OCC(O)CN4CCCCC4)ccn23)cc(OC(F)F)c1C(=O)NC1CC1 (stereo not shown) [Cpd 321, N-cyclopropyl-2-(difluoromethoxy)-4-[7-[2-hydroxy-3-(1-piperidyl)propoxy]imidazo [1,2-a]pyridin-3-yl]-6-methoxy-benzamide]
- IL-10 FCmax median [2]: +++ (>4.5)

- EC50 ([1]; 4 h): 0.1 to 100 nM
SMILES: CCOC(=O)C1(F)CCN(CCCOc2ccn3c(-c4cc(OC)c(C(=O)NC5CC5)c(OC(F)F)c4)cnc3c2)CC1 [Cpd 363, ethyl 1-[3-[3-[4-(cyclopropylcarbamoyl)-3-(difluoromethoxy)-5-methoxy-phenyl]imidazo[1,2-a]pyridin-7-yl]oxypropyl]-4-fluoro-piperidine-4-carboxylate]
- IL-10 FCmax median [2]: +++ (>4.5)

- EC50 ([1]; 4 h): 0.1 to 100 nM
SMILES: COc1cc(-c2cnc3cc(OCCOCCN4CCCCC4)ccn23)cc(OC(F)F)c1C(=O)NC1CC1 [compound 305]
- IL-10 FCmax median [2]: +++ (>4.5)
